Experimental data from PubChem BioAssay (NCI).
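Growth conditions: 96-well plates. Treatment: test compound, 48 hours, 5 concentrations. Analysis: linear interpolation between bracketing concentrations; unreached endpoints set to highest concentration. At the TGI there is no net growth.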

Tested on: SN12C renal
Assay: DTP human tumour cell line panel, 48 h

| Structure (SMILES) | TGI [µM] |
| --- | --- |
| Cc1ccccc1NC(=O)C(=O)C1CN(c2ccccc2)N=C1N (stereo unspecified) | > 100 |
| CCOC(=O)NC(=O)c1cn(CCN2CCN(C(=O)CCCCCCCCCCNc3ncnc4c3ncn4C3OC(CO)C(O)C3O)CC2)c(=O)[nH]c1=O (stereo unspecified) | > 100 |

Tested on: UO-31 renal
Assay: DTP human tumour cell line panel, 48 h

| Structure (SMILES) | TGI [µM] |
| --- | --- |
| O=c1[nH]c2cc([N+](=O)[O-])ccc2nc1/C(=N/Nc1ccccc1)C(O)c1ccc(Cl)cc1Cl (stereo unspecified) | > 100 |
| Cc1cc(C)nc(NS(=O)(=O)c2ccc(NC(=O)c3cccc4c(Nc5ccc(S(=O)(=O)N=C(N)N)cc5)c5ccccc5nc34)cc2)n1 | > 100 |
| Cc1ccccc1NC(=O)C(=O)C1CN(c2ccccc2)N=C1N (stereo unspecified) | > 100 |
| CCOC(=O)NC(=O)c1cn(CCN2CCN(C(=O)CCCCCCCCCCNc3ncnc4c3ncn4C3OC(CO)C(O)C3O)CC2)c(=O)[nH]c1=O (stereo unspecified) | > 100 |

Tested on: HOP-62 NSCLC
Assay: DTP human tumour cell line panel, 48 h

| Structure (SMILES) | TGI [µM] |
| --- | --- |
| O=c1[nH]c2cc([N+](=O)[O-])ccc2nc1/C(=N/Nc1ccccc1)C(O)c1ccc(Cl)cc1Cl (stereo unspecified) | > 100 |
| Cc1cc(C)nc(NS(=O)(=O)c2ccc(NC(=O)c3cccc4c(Nc5ccc(S(=O)(=O)N=C(N)N)cc5)c5ccccc5nc34)cc2)n1 | 94.3 |
| C#CCn1c(=O)[nH]c(=O)c2cccnc21 | > 100 |
| Cc1ccccc1NC(=O)C(=O)C1CN(c2ccccc2)N=C1N (stereo unspecified) | > 100 |
| CCOC(=O)NC(=O)c1cn(CCN2CCN(C(=O)CCCCCCCCCCNc3ncnc4c3ncn4C3OC(CO)C(O)C3O)CC2)c(=O)[nH]c1=O (stereo unspecified) | > 100 |

Tested on: SW-620 colon
Assay: DTP human tumour cell line panel, 48 h

| Structure (SMILES) | TGI [µM] |
| --- | --- |
| Cc1cc(C)nc(NS(=O)(=O)c2ccc(NC(=O)c3cccc4c(Nc5ccc(S(=O)(=O)N=C(N)N)cc5)c5ccccc5nc34)cc2)n1 | 42.4 |
| C#CCn1c(=O)[nH]c(=O)c2cccnc21 | > 100 |
| CCOC(=O)NC(=O)c1cn(CCN2CCN(C(=O)CCCCCCCCCCNc3ncnc4c3ncn4C3OC(CO)C(O)C3O)CC2)c(=O)[nH]c1=O (stereo unspecified) | > 100 |

Tested on: NCI-H460 lung
Assay: DTP human tumour cell line panel, 48 h

| Structure (SMILES) | TGI [µM] |
| --- | --- |
| O=c1[nH]c2cc([N+](=O)[O-])ccc2nc1/C(=N/Nc1ccccc1)C(O)c1ccc(Cl)cc1Cl (stereo unspecified) | > 100 |
| Cc1cc(C)nc(NS(=O)(=O)c2ccc(NC(=O)c3cccc4c(Nc5ccc(S(=O)(=O)N=C(N)N)cc5)c5ccccc5nc34)cc2)n1 | > 100 |
| Cc1ccccc1NC(=O)C(=O)C1CN(c2ccccc2)N=C1N (stereo unspecified) | > 100 |
| CCOC(=O)NC(=O)c1cn(CCN2CCN(C(=O)CCCCCCCCCCNc3ncnc4c3ncn4C3OC(CO)C(O)C3O)CC2)c(=O)[nH]c1=O (stereo unspecified) | > 100 |

Tested on: M19-MEL melanoma
Assay: DTP human tumour cell line panel, 48 h

| Structure (SMILES) | TGI [µM] |
| --- | --- |
| O=c1[nH]c2cc([N+](=O)[O-])ccc2nc1/C(=N/Nc1ccccc1)C(O)c1ccc(Cl)cc1Cl (stereo unspecified) | > 100 |
| Cc1cc(C)nc(NS(=O)(=O)c2ccc(NC(=O)c3cccc4c(Nc5ccc(S(=O)(=O)N=C(N)N)cc5)c5ccccc5nc34)cc2)n1 | > 100 |
| Cc1ccccc1NC(=O)C(=O)C1CN(c2ccccc2)N=C1N (stereo unspecified) | > 100 |

Tested on: SK-MEL-5 melanoma
Assay: DTP human tumour cell line panel, 48 h

| Structure (SMILES) | TGI [µM] |
| --- | --- |
| O=c1[nH]c2cc([N+](=O)[O-])ccc2nc1/C(=N/Nc1ccccc1)C(O)c1ccc(Cl)cc1Cl (stereo unspecified) | > 100 |
| Cc1cc(C)nc(NS(=O)(=O)c2ccc(NC(=O)c3cccc4c(Nc5ccc(S(=O)(=O)N=C(N)N)cc5)c5ccccc5nc34)cc2)n1 | > 100 |
| C#CCn1c(=O)[nH]c(=O)c2cccnc21 | > 100 |
| CCOC(=O)NC(=O)c1cn(CCN2CCN(C(=O)CCCCCCCCCCNc3ncnc4c3ncn4C3OC(CO)C(O)C3O)CC2)c(=O)[nH]c1=O (stereo unspecified) | > 100 |

Tested on: UACC-62 melanoma
Assay: DTP human tumour cell line panel, 48 h

| Structure (SMILES) | TGI [µM] |
| --- | --- |
| O=c1[nH]c2cc([N+](=O)[O-])ccc2nc1/C(=N/Nc1ccccc1)C(O)c1ccc(Cl)cc1Cl (stereo unspecified) | > 100 |
| Cc1cc(C)nc(NS(=O)(=O)c2ccc(NC(=O)c3cccc4c(Nc5ccc(S(=O)(=O)N=C(N)N)cc5)c5ccccc5nc34)cc2)n1 | > 100 |
| CCOC(=O)NC(=O)c1cn(CCN2CCN(C(=O)CCCCCCCCCCNc3ncnc4c3ncn4C3OC(CO)C(O)C3O)CC2)c(=O)[nH]c1=O (stereo unspecified) | > 100 |

Tested on: U251 CNS
Assay: DTP human tumour cell line panel, 48 h

| Structure (SMILES) | TGI [µM] |
| --- | --- |
| O=c1[nH]c2cc([N+](=O)[O-])ccc2nc1/C(=N/Nc1ccccc1)C(O)c1ccc(Cl)cc1Cl (stereo unspecified) | > 100 |
| Cc1cc(C)nc(NS(=O)(=O)c2ccc(NC(=O)c3cccc4c(Nc5ccc(S(=O)(=O)N=C(N)N)cc5)c5ccccc5nc34)cc2)n1 | > 100 |
| C#CCn1c(=O)[nH]c(=O)c2cccnc21 | > 100 |
| Cc1ccccc1NC(=O)C(=O)C1CN(c2ccccc2)N=C1N (stereo unspecified) | > 100 |
| CCOC(=O)NC(=O)c1cn(CCN2CCN(C(=O)CCCCCCCCCCNc3ncnc4c3ncn4C3OC(CO)C(O)C3O)CC2)c(=O)[nH]c1=O (stereo unspecified) | > 100 |

Tested on: DLD-1 colon
Assay: DTP human tumour cell line panel, 48 h

| Structure (SMILES) | TGI [µM] |
| --- | --- |
| O=c1[nH]c2cc([N+](=O)[O-])ccc2nc1/C(=N/Nc1ccccc1)C(O)c1ccc(Cl)cc1Cl (stereo unspecified) | > 100 |
| Cc1cc(C)nc(NS(=O)(=O)c2ccc(NC(=O)c3cccc4c(Nc5ccc(S(=O)(=O)N=C(N)N)cc5)c5ccccc5nc34)cc2)n1 | 42.8 |
| C#CCn1c(=O)[nH]c(=O)c2cccnc21 | > 100 |
| Cc1ccccc1NC(=O)C(=O)C1CN(c2ccccc2)N=C1N (stereo unspecified) | > 100 |
| CCOC(=O)NC(=O)c1cn(CCN2CCN(C(=O)CCCCCCCCCCNc3ncnc4c3ncn4C3OC(CO)C(O)C3O)CC2)c(=O)[nH]c1=O (stereo unspecified) | > 100 |

Tested on: SR leukemia
Assay: DTP human tumour cell line panel, 48 h

| Structure (SMILES) | TGI [µM] |
| --- | --- |
| O=c1[nH]c2cc([N+](=O)[O-])ccc2nc1/C(=N/Nc1ccccc1)C(O)c1ccc(Cl)cc1Cl (stereo unspecified) | 82.4 |
| C#CCn1c(=O)[nH]c(=O)c2cccnc21 | > 100 |
| Cc1ccccc1NC(=O)C(=O)C1CN(c2ccccc2)N=C1N (stereo unspecified) | > 100 |
| CCOC(=O)NC(=O)c1cn(CCN2CCN(C(=O)CCCCCCCCCCNc3ncnc4c3ncn4C3OC(CO)C(O)C3O)CC2)c(=O)[nH]c1=O (stereo unspecified) | > 100 |

Tested on: RPMI-8226 leukemia
Assay: DTP human tumour cell line panel, 48 h

| Structure (SMILES) | TGI [µM] |
| --- | --- |
| O=c1[nH]c2cc([N+](=O)[O-])ccc2nc1/C(=N/Nc1ccccc1)C(O)c1ccc(Cl)cc1Cl (stereo unspecified) | > 100 |
| Cc1cc(C)nc(NS(=O)(=O)c2ccc(NC(=O)c3cccc4c(Nc5ccc(S(=O)(=O)N=C(N)N)cc5)c5ccccc5nc34)cc2)n1 | > 100 |
| C#CCn1c(=O)[nH]c(=O)c2cccnc21 | > 100 |

Tested on: MALME-3M melanoma
Assay: DTP human tumour cell line panel, 48 h

| Structure (SMILES) | TGI [µM] |
| --- | --- |
| O=c1[nH]c2cc([N+](=O)[O-])ccc2nc1/C(=N/Nc1ccccc1)C(O)c1ccc(Cl)cc1Cl (stereo unspecified) | > 100 |
| Cc1cc(C)nc(NS(=O)(=O)c2ccc(NC(=O)c3cccc4c(Nc5ccc(S(=O)(=O)N=C(N)N)cc5)c5ccccc5nc34)cc2)n1 | > 100 |
| C#CCn1c(=O)[nH]c(=O)c2cccnc21 | > 100 |
| Cc1ccccc1NC(=O)C(=O)C1CN(c2ccccc2)N=C1N (stereo unspecified) | > 100 |
| CCOC(=O)NC(=O)c1cn(CCN2CCN(C(=O)CCCCCCCCCCNc3ncnc4c3ncn4C3OC(CO)C(O)C3O)CC2)c(=O)[nH]c1=O (stereo unspecified) | > 100 |

Tested on: TK-10 renal
Assay: DTP human tumour cell line panel, 48 h

| Structure (SMILES) | TGI [µM] |
| --- | --- |
| O=c1[nH]c2cc([N+](=O)[O-])ccc2nc1/C(=N/Nc1ccccc1)C(O)c1ccc(Cl)cc1Cl (stereo unspecified) | > 100 |
| Cc1cc(C)nc(NS(=O)(=O)c2ccc(NC(=O)c3cccc4c(Nc5ccc(S(=O)(=O)N=C(N)N)cc5)c5ccccc5nc34)cc2)n1 | 92.3 |
| C#CCn1c(=O)[nH]c(=O)c2cccnc21 | > 100 |
| CCOC(=O)NC(=O)c1cn(CCN2CCN(C(=O)CCCCCCCCCCNc3ncnc4c3ncn4C3OC(CO)C(O)C3O)CC2)c(=O)[nH]c1=O (stereo unspecified) | > 100 |

Tested on: A549 NSCLC
Assay: DTP human tumour cell line panel, 48 h

| Structure (SMILES) | TGI [µM] |
| --- | --- |
| O=c1[nH]c2cc([N+](=O)[O-])ccc2nc1/C(=N/Nc1ccccc1)C(O)c1ccc(Cl)cc1Cl (stereo unspecified) | > 100 |
| Cc1cc(C)nc(NS(=O)(=O)c2ccc(NC(=O)c3cccc4c(Nc5ccc(S(=O)(=O)N=C(N)N)cc5)c5ccccc5nc34)cc2)n1 | > 100 |
| C#CCn1c(=O)[nH]c(=O)c2cccnc21 | > 100 |
| Cc1ccccc1NC(=O)C(=O)C1CN(c2ccccc2)N=C1N (stereo unspecified) | > 100 |
| CCOC(=O)NC(=O)c1cn(CCN2CCN(C(=O)CCCCCCCCCCNc3ncnc4c3ncn4C3OC(CO)C(O)C3O)CC2)c(=O)[nH]c1=O (stereo unspecified) | > 100 |

Tested on: NCI-H522 lung
Assay: DTP human tumour cell line panel, 48 h

| Structure (SMILES) | TGI [µM] |
| --- | --- |
| O=c1[nH]c2cc([N+](=O)[O-])ccc2nc1/C(=N/Nc1ccccc1)C(O)c1ccc(Cl)cc1Cl (stereo unspecified) | > 100 |
| Cc1cc(C)nc(NS(=O)(=O)c2ccc(NC(=O)c3cccc4c(Nc5ccc(S(=O)(=O)N=C(N)N)cc5)c5ccccc5nc34)cc2)n1 | > 100 |
